This is an account of results in US8592166B2, “Hypoxia related genes and proteins for the treatment and diagnosis of pregnancy related complications” (Beth Israel Deaconess Medical Center, Inc., priority 2006, dated 2013).

Data set [1] has as its system cytotrophoblasts from the placenta. The settings on record: FIG. 1 and WO 2005/110462; cited from earlier work.
The test system of another data set is pregnant mice. Briefly: COMT knockout mouse model of pre-eclampsia, administration of 2-ME to pregnant mice. In kind it is in vivo. The conditions noted are these: administration of 2-ME to mice, FIG. 12. The procedure: FIG. 4 is a schematic of the experimental design for evaluating the role of COMT pre-eclampsia in mice.
FIG. 5 is a graph showing the number of dead embryos on Day 17 of pregnancy in mice with the indicated genotype (WT=wild type; Ko=mice with the COMT gene knocked out; +2me indicates the addition of 2-ME 2 ng/day).

For `COc1cc2c(cc1O)CC[C@@H]1[C@@H]2CC[C@]2(C)[C@@H](O)CC[C@@H]12` [2-ME, 2-methoxyestradiol], in data set [1], the “expression of HIF-1α” value is “decreases the expression of HIF-1α”; the “expression of VEGF, PlGF, VEGF Receptor 1 (VEGFR1) and sFlt-1” value was “dramatic decrease”. In the data set on pregnant mice, the abnormal development result was “does not alter the litter size or cause abnormal development” and the litter size result is “does not alter the litter size”.
